Several values for one entry are separate records, joined by “and”; a condition that tells them apart may be missing. Equal values may be shown once.
How the values were obtained:
[1] = disclosed by Struck et al. (1966); cited from earlier work
[2] = test system: M5076 reticulum cell sarcoma; experiment: ip implanted M5076 reticulum cell sarcoma tumor model in mice; format: in vivo, mouse
Description: Another chemosensitive tumor model is intraperitoneally (ip) implanted M5076 reticulum cell sarocma in mice. In this system B6D2F female mice are inoculated with 0.5 ml of a 10 percent (w:v) brei of M5076 prepared from pooled subcutaneous (sc) tumors excised at about 21 days from C57B1/6 donors. Drugs are administered ip. Daily treatment is begun 24 hours after implantation and is continued for ten days. The treatment regimen for M5076 is more prolonged than for P388 because of the slower growth rate and longer control survival time of the M5076 tumor. A drug is considered active in this tumor model if it produces ≥25% ILS.

B16 melanoma = experiment: in vivo ip B16 melanoma assay; parameters: species or system mouse
Description: In this system, groups of eight B6D2F1 mice are inoculated ip with 0.5 ml of a 10% (w:v) brei of […] prepared from pooled sc tumors excised at 14-21 days from […] donor mice. Daily treatment is begun 24 hours after tumor implantation and is continued daily for ten (10) days. The route of drug administration is ip. The mice are monitored daily for survival for sixty (60) days. Antitumor activity is assessed by prolongation of median survival time. An ILS of ≥25% indicates activity in this tumor model.

[3] = test system: P388 lymphocytic leukemia; experiment: in vivo ip P388 leukemia mouse model
Excerpt: P388 lymphocytic leukemia is currently the most widely used animal tumor model for screening for antitumor agents and for detailed evaluation of active compounds. This tumor system is widely accepted as an antitumor agent screening tool because it is sensitive to virtually all of the clinically active antineoplastic agents; quantitative and reproducible; amenable for large-scale screening; and predictive for activity in other animal tumor models.
10^6 P388 leukemia cells are inoculated ip in B6D2F1 mice. Twenty-four hours later, if the tumor inoculum proves to be free of bacterial contamination (as determined by 24 hours incubation in thioglycollate broth), animals are randomized into groups of 6 and housed in shoebox cages. The compound to be evaluated is dissolved in a minimal volume of N,N-dimethylacetamide (DMA). An equal volume of saline is added; if the drug comes out of solution an equal volume of polyethoxylated castor oil is added and then saline qs to a concentration such that the desired dose is delivered in 0.5 ml. The final concentration of DMA and polyethoxylated castor oil is 10 percent. Dilutions for lower doses are made with saline so there is a decreasing proportion of organic solvents in the vehicle with decreasing dosage. This vehicle provides a soluble formulation. […] Animals are monitored daily for mortality and experiments are terminated after 45 days. […]

SMILES	cytotoxic activity [1]	MTD (maximally tolerated dose) ([2]; B6D2F female mice, ip qD × 10 regimen) [mg/kg]	ILS (MAX), maximum increase in lifespan ([2]; mice bearing ip M5076 reticulum cell sarcoma, ip daily for ten days) [%]	MTD (maximally tolerated dose) (B16 melanoma; B6D2F1 mice, ip qD × 10 regimen) [mg/kg]	ILS, maximum increase in lifespan (B16 melanoma; mice bearing ip B16 melanoma, ip daily for ten days) [%]	MTD (maximally tolerated dose) ([3]; B62DF female mice, ip qDX5 regimen) [mg/kg]	ILS (max), maximum increase in lifespan ([3]; mice bearing ip P388 leukemia, ip Days 1 through 5, figures separated by slashes are from separate experiments)
c1ccc(P(CCP(c2ccccc2)c2ccccc2)c2ccccc2)cc1 [1,2-bis(diphenylphosphino)ethane]	cytotoxic activity	–	–	–	–	–	–
[Cl][Au].c1ccc(P(CCP(CCP(c2ccccc2)c2ccccc2)c2ccccc2)CCP(c2ccccc2)c2ccccc2)cc1 (stereo not shown) [Compound 1, Chloro[1,1,4,7,10,10-hexaphenyl-1,4,7,10-tetraphosphodecane-P^1, P^4, P^7, P^10] gold(I)]	–	2	38	2	37	3	40% and 65%

From US4675427A, “Tetraphosphine-coordinated gold(I) complexes” (Smith Kline Beckman Corporation, priority 1985, dated 1987)
